According to patent publication US8735433B1, “Aryl oxadiazole derivatives as sphingosine 1-phosphate (S1P) receptor modulators” (Allergan, Inc., priority 2012, dated 2014):

Biological target: T1, human S1P1 receptor (Homo sapiens, UniProt P21453)
T1 construct: expressed in transfected cells; membrane preparation
Experiment: GTP γ35S binding assay for S1P1 activity
Format: biochemical
Conditions: membranes of cells stably expressing the S1P1 receptor, test compounds 0.08 to 5,000 nM, 30 min at 25° C.
Procedure: Compounds were synthesized and tested for S1P1 activity using the GTP γ^35S binding assay. These compounds may be assessed for their ability to activate or block activation of the human S1P1 receptor in cells stably expressing the S1P1 receptor.
GTP γ^35S binding was measured in the medium containing (mM) HEPES 25, pH 7.4, MgCl2 10, NaCl 100, dithitothreitol 0.5, digitonin 0.003%, 0.2 nM GTP γ^35S, and 5 μg membrane protein in a volume of 150 μl. Test compounds were included in the concentration range from 0.08 to 5,000 nM unless indicated otherwise. Membranes were incubated with 100 μM 5′-adenylylimmidodiphosphate for 30 min, and subsequently with 10 μM GDP for 10 min on ice. Drug solutions and membrane were mixed, and then reactions were initiated by adding GTP γ^35S and continued for 30 min at 25° C. Reaction mixtures were filtered over Whatman GF/B filters under vacuum, and washed three times with 3 mL of ice-cold buffer (HEPES 25, pH7.4, MgCl2 10 and NaCl 100). Filters were dried and mixed with scintillant, and counted for ^35S activity using a β-counter. Agonist-induced GTP γ^35S binding was obtained by subtracting that in the absence of agonist. Binding data were analyzed using a non-linear regression method. In case of antagonist assay, the reaction mixture contained 10 nM S1P in the presence of test antagonist at concentrations ranging from 0.08 to 5000 nM.

T1 sequence (P21453 whole entry): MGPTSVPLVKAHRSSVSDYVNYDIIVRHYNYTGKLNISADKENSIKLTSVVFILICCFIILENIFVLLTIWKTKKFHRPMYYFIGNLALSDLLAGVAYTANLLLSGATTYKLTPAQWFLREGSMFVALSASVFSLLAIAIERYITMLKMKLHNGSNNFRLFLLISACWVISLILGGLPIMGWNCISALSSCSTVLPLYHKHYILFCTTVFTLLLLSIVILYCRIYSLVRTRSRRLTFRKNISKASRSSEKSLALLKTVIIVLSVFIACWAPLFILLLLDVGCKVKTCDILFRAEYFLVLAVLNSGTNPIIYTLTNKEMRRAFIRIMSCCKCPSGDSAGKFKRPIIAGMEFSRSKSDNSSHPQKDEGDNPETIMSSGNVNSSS

EC50 [nM]	SMILES
175	Cc1ccc(CC(c2cccc(Cl)c2)c2nc(-c3ccc(CCC(N)(CO)CO)cc3)no2)cc1C (stereo not drawn) [2-amino-2-[2-(4-{5-[1-(3-chlorophenyl)-2-(3,4-dimethylphenyl)ethyl]-1,2,4-oxadiazol-3-yl}phenyl)ethyl]propane-1,3-diol]
87.2	Cc1ccc(CC(c2cc(F)cc(F)c2)c2nc(-c3ccc(CCC(N)(CO)CO)cc3)no2)cc1C (stereo not drawn) [Compound 1, 2-amino-2-[2-(4-{5-[1-(3,5-difluorophenyl)-2-(3,4-dimethylphenyl)ethyl]-1,2,4-oxadiazol-3-yl}phenyl)ethyl]propane-1,3-diol]
1210	Cc1ccc(CC(c2nc(-c3ccc(CCC(N)(CO)CO)cc3)no2)c2cccs2)cc1C (stereo not drawn)
